Earlier results on 1 compound are cited in patent US12115373B2, “Methods for reducing the risk of strokes by pharmacotherapy to reduce the number and duration of atrial fibrillations” (Xyra, LLC, priority 2022, dated 2024).

The conditions of this data set: in 2016; reported by the Market Insider; cited from earlier work.

`O=C(NC[C@H]1CN(c2ccc(N3CCOCC3=O)cc2)C(=O)O1)c1ccc(Cl)s1` [Xarelto, rivaroxaban]: the adverse events entry is on record as “over 15,000”.
